Experimental data from PMC8581430, “Peptide ligands targeting FGF receptors promote recovery from dorsal root crush injury via AKT/mTOR signaling” (Theranostics, 2021).

Legend:
[1] = system: primary DRG neurons; assay: Axon growth of primary adult DRG neurons; assay type: cell-based, Sprague-Dawley rat; settings: 48 h
Experimental: (§1) Figure 3 Effect of the CH02 peptide on axon growth and neuron survival. (A) Representative images of the CH02 peptide effect on axon growth in adult primary DRG neurons. DRG neurons were obtained from adult Sprague-Dawley rats. After 12-h of culture, neurons were stimulated with CH02 or bFGF for 48 h. Axonal outgrowth was assessed by immunocytochemistry using an antibody against β-tubulin, an axonal marker. Images were acquired from random neurons by fluorescence microscopy. Scale bars = 50 μm. (B) Quantification of the longest axon length of each neuron randomly selected in three independent experiments from (A), using Image-Pro Plus 6.0 software (n = 48 for each condition; *p < 0.05, ****p < 0.0001 by one-way ANOVA with Dunnett's test; ns, not significant; mean ± SD). (C) Representative images of the CH02 effect on axon growth in ex vivo cultured adult DRG explants. The axon is shown in fluorescence (β3-tubulin) images. Scale bars = 100 μm. (D) Quantification of axon growth of DRG explants from (C) using the Neurite-J software (n=4 for each condition; *control vs. CH02; #control vs. bFGF; *p < 0.05, **p < 0.01, ***p < 0.001, #p < 0.05, ##p < 0.01 by two-way ANOVA with Dunnett's test; ns, not significant; mean ± SEM). (E) Cell cytotoxicity assay of primary DRG neurons induced by H2O2. LDH released from damaged cell membranes was detected by an LDH assay kit. The results are expressed as the mean ± SEM (**p < 0.01 by one-way ANOVA with Dunnett's test; ns, not significant, compared with the control group). (F) Representative TUNEL staining of apoptotic neurons induced by H2O2 in the control, CH02, and FGF2 groups. Scale bars = 50 μm. Apoptotic neurons were detected by a TUNEL apoptosis assay kit. TUNEL (green); NeuN, neuronal marker (red); DAPI (blue). (G) Quantification of TUNEL-positive neurons from (F) (n = 3 for each condition; **p < 0.01 by one-way ANOVA with Dunnett's test; ns, not significant, compared with the control group). DRG neurons were obtained from adult Sprague-Dawley rats. […]

[2] = system: DRG explants; assay: Axon growth of ex vivo cultured adult DRG explants; assay type: cell-based, Sprague-Dawley rat; settings: 4 days
Experimental: as §1, with “(F) Representative TUNEL staining of apoptotic neurons induced by H2O2 in the control, CH02, and FGF2 groups. Scale bars = 50 μm.” left out, “TUNEL (green); NeuN, neuronal marker (red); DAPI (blue).” left out, “group).” for “group). DRG neurons were obtained from adult Sprague-Dawley rats.”
DRG explants were harvested from adult Sprague-Dawley rats (220-250 g) and placed in a 3.5 cm dish containing 2 mL of ice-cold neurobasal medium supplemented with 1 × B27, 4 mM Glutamax and 3× penicillin/streptomycin (Pen/Strep). […] After 7 days of culture, axon growth was measured. […]

| SMILES | effect of inhibitor on CH02-enhanced neurite outgrowth, primary neurons ([1]; CH02 20 μM + BGJ398 2 μM, n = 100) | effect of inhibitor on CH02-enhanced neurite outgrowth, DRG explants ([2]; CH02 20 μM + BGJ398 2 μM, n = 5) | effect of AKT/ERK inhibitor on axon growth-promoting effect of CH02, DRG neurons ([1]; CH02 20 μM + inhibitor 2 μM, n = 40) | effect of AKT/ERK inhibitor on axon growth-promoting effect of CH02, DRG explants ([2]; CH02 20 μM + inhibitor 2 μM, n = 4) |
| --- | --- | --- | --- | --- |
| CCN1CCN(c2ccc(Nc3cc(N(C)C(=O)Nc4c(Cl)c(OC)cc(OC)c4Cl)ncn3)cc2)CC1 [BGJ398] | inhibited the enhancement of neuron outgrowth associated with CH02 treatment | inhibited the enhancement of neuron outgrowth associated with CH02 treatment | – | – |
| N#CC(=C(/N)Sc1ccccc1N)/C(C#N)=C(/N)Sc1ccccc1N [U0126] | – | – | had little effect | had little effect |
